Where “and” joins values, the source holds several entries; their conditions need not be identical. Equal values may be shown once. Read-outs that look alike come from different tables or passages of the source.
Columns and labels:
[1] = Precipitation test after adjusting aqueous solution to pH 7.0; type: physicochemical; details: 32 mg based on topiramate in 1 mL H2O, pH adjusted to 7.0 with 1.0 N HCl
[2] = for pH: Table 2, pH of the solution; for increase in water solubility over SAHA: pH 10
[3] = cited from earlier work
[4] = highly variable; cited from earlier work
[5] = Solubility/pH studies of topiramate-containing coordination complexes (gravimetric); type: physicochemical
Method: Solubility/pH Studies of Topiramate-Containing Coordination Complexes: Initial screening of drug candidates was based on a qualitative determination of aqueous solubility using gravimetric methods. Briefly, a known quantity of coordination compound (ca. 50 mg) was dissolved in a known amount of water ([…]). The pH of the resulting mixture was measured, and the solution/suspension was filtered and concentrated to afford a minimal solubility value.

[6] = 23° C., cited from earlier work
[7] = pH 7.4; cited from earlier work

With `CC1(C)O[C@@H]2[C@@H](CO[C@@]3(COS([NH-])(=O)=O)OC(C)(C)O[C@@H]23)O1.CC1(C)O[C@@H]2[C@@H](CO[C@@]3(COS([NH-])(=O)=O)OC(C)(C)O[C@@H]23)O1.[Ca+2]` [Calcium Salt of Topiramate] the precipitation on standing [1] was “A precipitate formed immediately”.

For `O=C(CCCCCCC(=O)Nc1ccccc1)N[O-].O=C(CCCCCCC(=O)Nc1ccccc1)N[O-].[Mg+2]` [Compound 1, Mg(saha)2], the “pH of the solution” value [2] was 7.75 and the pH [2] was 7.94.

In the case of `O=C(CCCCCCC(=O)Nc1ccccc1)NO` [SAHA, suberoylanilide hydroxamic acid], the water solubility [3] is listed as “about 0.1 mg/mL”, the pH [2] is listed as 7.95 and the oral bioavailability [4] is listed as “less than 50%”.

For `O=C(CCCCCCC(=O)Nc1ccccc1)N[O-].O=C(CCCCCCC(=O)Nc1ccccc1)N[O-].[Ni+2]` [Compound 3, Ni(saha)2], the “pH of the solution” value [2] was 5.86 and the pH [2] was 5.67.

In the case of `O=C(CCCCCCC(=O)Nc1ccccc1)N[O-].O=C(CCCCCCC(=O)Nc1ccccc1)N[O-].[Ca+2]` [Compound 2, Ca(saha)2], the “pH of the solution” value [2] is reported as 8.60, the pH [2] is reported as 8.6 and the “pH of solution compared with SAHA” value ([2]; in words) is reported as “slightly higher than the pH of a solution of SAHA itself”.

For `CC1(C)O[C@@H]2[C@@H](CO[C@@]3(COS([NH-])(=O)=O)OC(C)(C)O[C@@H]23)O1.CC1(C)O[C@@H]2[C@@H](CO[C@@]3(COS([NH-])(=O)=O)OC(C)(C)O[C@@H]23)O1.[Ca+2]` [Calcium(topiramate)2], the precipitation on standing [1] was “No precipitate was observed upon standing for 2 hours”, the “solubility relative to free topiramate” value ([5]; pH 7.0) was “at least three times the solubility of free topiramate” and the “solubility (minimal value)” value ([5]; pH 7.0, gravimetric) was ≥ 34 mg/mL.

For `CC1(C)O[C@@H]2[C@@H](CO[C@@]3(COS(N)(=O)=O)OC(C)(C)O[C@@H]23)O1` [topiramate, 2,3:4,5-bis-O-isopropylidene-β-D-fructopyranose sulfamate], the water solubility [6] is listed as “about 9.8 mg/mL and ~0.029 M” and the “log D” value [7] is listed as −0.5.

In the case of `O=C(CCCCCCC(=O)Nc1ccccc1)N[O-].[Na+]` [Na(saha)], the “solution pH required to stay in solution” value ([3]; prior study, Memorial Sloan Kettering Cancer Center) is listed as “above 11”, the “pH of the solution” value [2] is listed as “around 10” and the pH [2] is listed as 10. The “pH of the solution” value ([2]; listed as sodium salt of SAHA) was 10 and the “increase in water solubility over SAHA” value [2] was ~7 fold.

For Ca(saha)(quinic acid) [Compound 5], the “increase in water solubility over SAHA” value [2] was ~19 fold.

In the case of `CC1(C)O[C@@H]2[C@@H](CO[C@@]3(COS([NH-])(=O)=O)OC(C)(C)O[C@@H]23)O1.O.O.O.[Na+]` [sodium topiramate trihydrate], the water solubility ([6]; trihydrate) is given as “about 1300 mg/mL and ~3.59 M”.

In the case of Ca(saha)(tricine) [Compound 4], the “pH of the solution” value [2] is reported as 8.75 and the pH [2] is reported as 8.75.
